Measurements: PubChem BioAssay AID248 (DTP/NCI, 2004)
Values joined by “and” are separate entries in the source; they are usually repeats but may differ in a detail not shown here. Identical values can stand only once. Toxic doses and inconclusive results are not listed.

System: L1210 leukemia ip in BDF1 mice, survival T/C
Test: NCI In Vivo Anticancer Drug Screen. Data for tumor model L1210 Leukemia (intraperitoneal) in B6D2F1 (BDF1) mice
Conditions: endpoint: mean survival time, higher = longer survival
How it was run: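 Value reflects the ratio of survival in compound-treated mice to survival in vehicle-treated controls, with both groups carrying the same transplanted tumor.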

[1] = dose: 100.0 mg/kg/injection, schedule: Q04DX003 (ip), vehicle: saline with Tween-80
[2] = dose: 200.0 mg/kg/injection, schedule: Q04DX003 (ip), vehicle: saline with Tween-80
[3] = dose: 400.0 mg/kg/injection, schedule: Q04DX003 (ip), vehicle: saline with Tween-80
[4] = dose: 100.0 mg/kg/injection, schedule: Q01DX009 (ip), vehicle: Klucel (hydroxypropylcellulose) (HPC)
[5] = dose: 200.0 mg/kg/injection, schedule: Q01DX009 (ip), vehicle: Klucel (hydroxypropylcellulose) (HPC)
[6] = dose: 400.0 mg/kg/injection, schedule: Q01DX009 (ip), vehicle: Klucel (hydroxypropylcellulose) (HPC)
[7] = dose: 100.0 mg/kg/injection, schedule: Q04DX002 (ip), vehicle: saline
[8] = dose: 200.0 mg/kg/injection, schedule: Q04DX002 (ip), vehicle: saline
[9] = dose: 100.0 mg/kg/injection, schedule: Q04DX003 (ip), vehicle: Klucel (hydroxypropylcellulose) (HPC)
[10] = dose: 200.0 mg/kg/injection, schedule: Q04DX003 (ip), vehicle: Klucel (hydroxypropylcellulose) (HPC)
[11] = dose: 400.0 mg/kg/injection, schedule: Q04DX003 (ip), vehicle: Klucel (hydroxypropylcellulose) (HPC)
[12] = dose: 50.0 mg/kg/injection, schedule: Q01DX001 (ip), vehicle: carboxymethylcellulose (CMC)
[13] = dose: 100.0 mg/kg/injection, schedule: Q01DX001 (ip), vehicle: carboxymethylcellulose (CMC)
[14] = dose: 200.0 mg/kg/injection, schedule: Q01DX001 (ip), vehicle: carboxymethylcellulose (CMC)
[15] = dose: 400.0 mg/kg/injection, schedule: Q01DX001 (ip), vehicle: carboxymethylcellulose (CMC)

COc1cc(C)ccc1C1=CCCC1
T/C (dose: 37.5 mg/kg/injection, schedule: Q01DX009 (ip), vehicle: saline): 116 % of control
T/C (dose: 75.0 mg/kg/injection, schedule: Q01DX001 (ip), vehicle: acetone): 102 % of control
T/C (dose: 75.0 mg/kg/injection, schedule: Q01DX009 (ip), vehicle: saline): 111 % of control
T/C (dose: 150.0 mg/kg/injection, schedule: Q01DX001 (ip), vehicle: acetone): 91 % of control
T/C (dose: 150.0 mg/kg/injection, schedule: Q01DX009 (ip), vehicle: saline): 106 % of control
T/C (dose: 225.0 mg/kg/injection, schedule: Q01DX009 (ip), vehicle: acetone): 86 % of control
T/C (dose: 300.0 mg/kg/injection, schedule: Q01DX001 (ip), vehicle: acetone): 89 % of control

CN(C)c1ccc(/C=N/NC(=O)Cc2cccc3ccccc23)cc1
T/C (dose: 100.0 mg/kg/injection, schedule: Q01DX009 (ip), vehicle: saline with Tween-80): 90 % of control
T/C (dose: 200.0 mg/kg/injection, schedule: Q01DX009 (ip), vehicle: saline with Tween-80): 86 % of control
T/C (dose: 400.0 mg/kg/injection, schedule: Q01DX009 (ip), vehicle: saline with Tween-80): 86 % of control

COc1ccc(NC(=O)Oc2ccccc2-c2ccccc2)cc1
T/C [1]: 91 % of control
T/C [2]: 91 % of control
T/C [3]: 86 % of control

C/C(=C/C(=O)O)c1cc2ccccc2n1C
T/C [1]: 100 % of control
T/C [2]: 92 % of control
T/C [3]: 96 % of control

COc1ccccc1/C=N/NC(=O)CCCCCCCCC(=O)N/N=C/c1ccccc1OC
T/C [4]: 95 % of control
T/C [5]: 88 % of control
T/C [6]: 88 % of control

CCOC(=O)C(=O)O
T/C (dose: 25.0 mg/kg/injection, schedule: Q01DX009 (ip), vehicle: saline): 96 % of control
T/C (dose: 50.0 mg/kg/injection, schedule: Q01DX009 (ip), vehicle: saline): 103 % of control
T/C (dose: 100.0 mg/kg/injection, schedule: Q01DX009 (ip), vehicle: saline): 96 % of control
T/C [7]: 106 % of control
T/C [8]: 109 % of control
T/C (dose: 400.0 mg/kg/injection, schedule: Q04DX002 (ip), vehicle: saline): 97 % of control

CCC12C=CCN3CCC4(C(=C(C(=O)OC)C1)Nc1cc(OC)ccc14)C32 (configuration not stated)
T/C [7]: 110 % of control
T/C [8]: 121 % of control

Cc1cccc(CN(CC(=O)O)S(C)(=O)=O)c1
T/C (dose: 100.0 mg/kg/injection, schedule: Q01DX009 (ip), vehicle: other): 102 % of control
T/C (dose: 100.0 mg/kg/injection, schedule: Q04DX003 (ip), vehicle: other): 100 % of control
T/C (dose: 200.0 mg/kg/injection, schedule: Q01DX009 (ip), vehicle: other): 100 % of control
T/C (dose: 200.0 mg/kg/injection, schedule: Q04DX003 (ip), vehicle: other): 98 % of control
T/C (dose: 400.0 mg/kg/injection, schedule: Q01DX009 (ip), vehicle: other): 100 % of control
T/C (dose: 400.0 mg/kg/injection, schedule: Q04DX003 (ip), vehicle: other): 93 % of control

N#CCc1c(Cl)ccc(Cl)c1Cl
T/C (dose: 12.0 mg/kg/injection, schedule: Q01DX009 (ip), vehicle: Klucel (hydroxypropylcellulose) (HPC)): 97 % of control
T/C (dose: 25.0 mg/kg/injection, schedule: Q01DX009 (ip), vehicle: Klucel (hydroxypropylcellulose) (HPC)): 100 % of control
T/C (dose: 25.0 mg/kg/injection, schedule: Q04DX003 (ip), vehicle: Klucel (hydroxypropylcellulose) (HPC)): 97 % of control
T/C (dose: 50.0 mg/kg/injection, schedule: Q01DX009 (ip), vehicle: Klucel (hydroxypropylcellulose) (HPC)): 94 % of control
T/C (dose: 50.0 mg/kg/injection, schedule: Q04DX003 (ip), vehicle: Klucel (hydroxypropylcellulose) (HPC)): 98 % of control
T/C [9]: 101 % of control and 87 % of control

CC(C)(C)OC(=O)NC(CC(=O)OCc1ccccc1)C(=O)O (configuration not stated)
T/C [4]: 87 % of control
T/C [9]: 93 % of control
T/C [10]: 95 % of control
T/C [11]: 106 % of control

CCOC(=O)C(CC#N)C(=O)OCC
T/C (dose: 75.0 mg/kg/injection, schedule: Q01DX001 (ip), vehicle: carboxymethylcellulose (CMC)): 104 % of control
T/C (dose: 150.0 mg/kg/injection, schedule: Q01DX001 (ip), vehicle: carboxymethylcellulose (CMC)): 98 % of control
T/C (dose: 300.0 mg/kg/injection, schedule: Q01DX001 (ip), vehicle: carboxymethylcellulose (CMC)): 96 % of control

COc1cc2ccncc2cc1Oc1ccc(C)cc1
T/C (dose: 50.0 mg/kg/injection, schedule: Q01DX001 (ip), vehicle: other): 97 % of control
T/C (dose: 100.0 mg/kg/injection, schedule: Q01DX001 (ip), vehicle: other): 104 % of control
T/C (dose: 200.0 mg/kg/injection, schedule: Q01DX001 (ip), vehicle: other): 97 % of control

O=[N+]([O-])c1ccc2c3c(ccc(Br)c13)CC2
T/C (dose: 100.0 mg/kg/injection, schedule: Q01DX009 (ip), vehicle: saline sonified): 103 % of control
T/C [9]: 106 % of control
T/C (dose: 200.0 mg/kg/injection, schedule: Q01DX009 (ip), vehicle: saline sonified): 103 % of control
T/C [10]: 98 % of control
T/C (dose: 400.0 mg/kg/injection, schedule: Q01DX009 (ip), vehicle: saline sonified): 100 % of control
T/C [11]: 92 % of control

Cc1ccc(Nc2ccc([N+](=O)[O-])cc2)cc1
T/C (dose: 100.0 mg/kg/injection, schedule: Q01DX001 (ip), vehicle: gum acacia): 93 % of control
T/C (dose: 200.0 mg/kg/injection, schedule: Q01DX001 (ip), vehicle: gum acacia): 100 % of control

N#CSCc1ccc(CSC#N)c(Cl)c1
T/C (dose: 1.56 mg/kg/injection, schedule: Q01DX009 (ip), vehicle: saline sonified): 97 % of control
T/C (dose: 1.56 mg/kg/injection, schedule: Q04DX003 (ip), vehicle: saline with Tween-80): 101 % of control
T/C (dose: 3.13 mg/kg/injection, schedule: Q01DX009 (ip), vehicle: saline sonified): 109 % of control
T/C (dose: 3.13 mg/kg/injection, schedule: Q04DX003 (ip), vehicle: saline with Tween-80): 109 % of control
T/C (dose: 6.25 mg/kg/injection, schedule: Q01DX009 (ip), vehicle: saline sonified): 111 % of control
T/C (dose: 6.25 mg/kg/injection, schedule: Q04DX003 (ip), vehicle: saline with Tween-80): 109 % of control

CCOC(=O)c1ccc(N=Cc2cccc([N+](=O)[O-])c2)cc1
T/C [9]: 89 % of control
T/C [10]: 88 % of control
T/C [11]: 96 % of control

CCCCCC[n+]1cccc(C(N)=O)c1
T/C [9]: 100 % of control
T/C [10]: 94 % of control

O=C(Nc1cccc2ccccc12)N1CCCc2ccccc21
T/C [12]: 88 % of control
T/C [13]: 98 % of control
T/C [14]: 95 % of control
T/C [15]: 90 % of control

CCc1ccc(NC2=C(OC)C(=O)C(Nc3ccc(CC)cc3)=C(OC)C2=O)cc1
T/C [12]: 98 % of control
T/C [13]: 93 % of control
T/C [14]: 98 % of control
T/C [15]: 90 % of control

CCc1ccc(C)[n+](C)c1
T/C (dose: 75.0 mg/kg/injection, schedule: Q01DX001 (ip), vehicle: saline): 96 % of control
T/C (dose: 150.0 mg/kg/injection, schedule: Q01DX001 (ip), vehicle: saline): 95 % of control

CN(CCO)c1c(Cl)c(=O)oc2ccc(Cl)cc12
T/C [1]: 90 % of control
T/C [2]: 92 % of control
T/C [3]: 89 % of control

CN(C)N=Nc1cccnc1
T/C (dose: 8.0 mg/kg/injection, schedule: Q01DX009 (ip), vehicle: saline): 97 % of control
T/C (dose: 9.5 mg/kg/injection, schedule: Q01DX001 (ip), vehicle: saline): 106 % of control
T/C (dose: 14.0 mg/kg/injection, schedule: Q01DX009 (ip), vehicle: saline): 103 % of control
T/C (dose: 19.0 mg/kg/injection, schedule: Q01DX001 (ip), vehicle: saline): 106 % of control
T/C (dose: 23.0 mg/kg/injection, schedule: Q01DX009 (ip), vehicle: saline): 108 % of control
T/C (dose: 38.0 mg/kg/injection, schedule: Q01DX001 (ip), vehicle: saline): 117 % of control
T/C (dose: 57.0 mg/kg/injection, schedule: Q01DX009 (ip), vehicle: saline): 150 % of control
T/C (dose: 86.0 mg/kg/injection, schedule: Q01DX009 (ip), vehicle: saline): 162 % of control

CN(CCC#N)c1ccc(/C=C(\C#N)c2ccc(Cl)cc2)cc1
T/C [4]: 102 % of control
T/C [5]: 103 % of control
T/C [6]: 105 % of control
